Laboratory results reported in patent US11369650B2, “Methods for reversing multiple resistance in animal cells” (priority 2004, dated 2022).

Legend:
U373 tumour cells [1] = test: Southern blot of dl520 replication after Irinotecan; type: cell-based; details: U373, 5 μM Irinotecan 24 h before 10 pfu/cell dl520
Protocol: In order to determine the effect of Irinotecan on adenoviral replication 10^6 U373 tumour cells were plated in 10 cm^2 Petri dishes. In a first reaction 5 μM Irinotecan was added after 24 hours. After another 24 hours the cells were infected with 10 pfu/cell dl520. After incubation of 3 days without Irinotecan DNA was isolated in accordance with the procedure described in example 10.
In a parallel reaction the thus prepared U373-cells were not pre-incubated with Irinotecan. After 48 hours of cultivating the cells without Irinotecan, they were infected with 10 pfu/cell dl520 and subsequently incubated without Irinotecan for another 3 days. DNA was isolated as described above.
Subsequently […] were digested with restriction enzyme Kpn I and a Southern Blot analysis performed. A part of the adenoviral genome (position: 22734-24235) generated by means of PCR was used as a probe.

U373 cells = test: Oncolysis of U373 cells by dl520 with Irinotecan and Trichostatin A, crystal violet; type: cell-based; details: U373, 2 μM Irinotecan
Protocol: 200,000 U373 cells were plated in a 6 well plate. After 24 hours either 2 μM Irinotecan or only 1 μM Trichostatin A or 1 μM Irinotecan+0.5 μM Trichostatin were added to the medium. After 24 hours of incubation the cells were infected with 10, 20 and 30 pfu/cell dl520. After 3-5 days the analysis was performed using crystal violet staining. The assays were performed in duplicate.
The further 6 well plates 2, 3 and 4 depicted in FIG. 22, herein also referred to as panels 2, 3 and 4, were basically treated in accordance with this scheme. The individual wells were inoculated with U373 cells as previously described and the cells cultivated therein. The wells were inoculated with 10, 20 or 30 pfu/cell dl520 in duplicate, whereby the difference between the three 6 well plates resided in the kind of cytostatics used. In panel 2 2 μM Irinotecan, in panel 3 […] and in panel 4 1 μM Irinotecan and 0.5 μM Trichostatin A was added to the individual plates.

U2OS cells = test: Oncolytic assay with daunorubicine and dl520, crystal violet; type: cell-based, human; details: 40 ng/ml
Protocol: (§1) In the practising of the oncolytic assays the following procedure was followed: 200,000 cells (HeLa and U2OS, respectively) were plated into each well of a 6 well plate. On the next day 40 ng/ml (final concentration) of daunorubicine were added. After 3 hours of incubation the cells were infected with 10 and 30 pfu dl520/cell, respectively. Subsequently, the cells were incubated in cytostatic free medium. After 3-5 days the cells were stained using crystal violet.

HeLa cells = test: as above; type: cell-based; details: 40 ng/ml
Protocol: as §1

U373 tumour cells [2] = test: Southern blot of dl520 replication after Trichostatin A; type: cell-based; details: U373, 0.25, 0.5 and 0.75 μM Trichostatin A, 10 pfu/cell dl520
Protocol: In order to test the effect of Trichostatin A on adenoviral replication, 10^6 U373 tumour cells were plated in 10 cm^2 Petri dishes. After 24 hours 0.25, 0.5 and 0.75 μM Trichostatin A was added. After another 24 hours the cells were infected with 10 pfu/cell dl520.
After 3 days of incubation in medium without Trichostatin DNA was isolated. Subsequently 2 μg DNA were digested with restriction enzyme Kpn I and a Southern Blot analysis performed. A part of the adenoviral genome (position: 22734-24235) generated by means of PCR was used as a probe.

[3] = test system: Coxsackievirus-adenovirus-receptor (CAR) on U373 cells; test: FACS analysis of CAR expression; type: cell-based; details: U373, 1 μM Trichostatin, 24 hours
Protocol: 200,000 U373 cells were plated in 6 well plates. After 24 hours the cells were cultivated with 1 μM Trichostatin for 24 hours. After another 24 hours the cells were isolated. Subsequently, analysis of CAR expression was performed according to a standard protocol using Facs-analysis and the primary antibody anti-CAR clone RmcB from the company Upstate, and a rabbit-anti-mouse FITC as secondary antibody (company DAKO).

CCc1c2c(nc3ccc(OC(=O)N4CCC(N5CCCCC5)CC4)cc13)-c1cc3c(c(=O)n1C2)COC(=O)[C@]3(O)CC [Irinotecan]
adenoviral (dl520) replication compared to untreated control (U373 tumour cells [1]): significantly increased | dl520 titer at which the cells were lysed (U373 cells): 30 pfu/cell

COc1cccc2c1C(=O)c1c(O)c3c(c(O)c1C2=O)C[C@@](O)(C(C)=O)C[C@@H]3O[C@H]1C[C@H](N)[C@H](O)[C@H](C)O1 [daunorubicine]
effect of daunorubicine on replication of dl520 (U2OS cells): induces the replication of dl520 | effect of daunorubicine on replication of dl520 (HeLa cells): induces the replication of dl520

CC(/C=C/C(=O)NO)=C\[C@@H](C)C(=O)c1ccc(N(C)C)cc1 [Trichostatin A]
viral (dl520) replication compared to untreated controls (U373 tumour cells [2]): significantly increased | CAR-positive cells [3]: 56.2%
